In data set [1] the test system is A549 lung tumor cells. The data set can be described thus: antiproliferative effect against A549 lung tumor cells (MTT). In kind it is cell-based. The following applies: human lung tumor cells, mean ± S.D., n in parentheses. The protocol:
(§1) The crude ethanolic extract and essentially pure compound were tested for toxicity against murine P388 leukemia cells and cells derived from human colon (HT-29) and lung (A549) tumors. P388 cells obtained from Dr. J. Mayo, National Cancer Institute, Bethesda Md., were maintained in Roswell Park Memorial Institute (RPMI) medium 1640 supplemented with 10% horse serum. HT-29 and A-459 human tumor cells were obtained from the American Type Culture Collection (Rockville, Md.) and maintained in RPMI medium 1640 supplemented with 10% fetal bovine serum. All cell lines were cultured in plastic tissue culture flasks and kept in an incubator at 37° C. in humidified air containing 5% CO2. Antibiotic-free stock cultures of P388 cells were subcultured to 10^5 cells/ml by dilution in fresh growth medium at 2 to 3 day intervals. The mean generation time of primary P388 cultures was 14 to 17 hr. HT-29 and A549 cells were subcultured after dissociation with trypsin-EDTA at weekly intervals.
(§2) To assess the antiproliferative effects of agents against P388, HT-29, and A549 cells, 200 μl cultures (96-well tissue culture plates, Nunc, Denmark) were established at 1×10^5 cells/ml (4000 cells/cm^2 for HT-29 and A549) in drug-free medium or medium containing the crude extract at a final dilution of 1:500 of test compound at various concentrations. Solvent for all dilutions was methanol, which was removed from plates under vacuum. All experimental cultures were initiated in medium containing Gentamicin sulfate ([…]; Schering Corporation, Kenilworth, N.J.). After 48-h exposures, P388 cells were enumerated using 3-[4,5-Dimethylthiazol-2-yl]-2,5-diphenyltetrazolium bromide (MTT) as described below (Alley, M. C., et al.[1988] Cancer Res. 48:589).
(§3) To quantitate the effects on cell proliferation, 75 μl of warm growth medium containing 5 mg/ml MTT was added to each well and cultures were returned to the incubator for 90 minutes. To spectrophotometrically quantitate MTT, plates were centrifuged (900×g, 5 minutes), culture fluids removed by aspiration, and 200 μl of acidified isopropanol (2 ml concentrated HCl/liter isopropanol) added per well. The absorbance of the resulting solutions were measured at 570 nm with a plate reader (MR700 Microplate Reader, Dynatech, Laboratories, Chantilly, Va.). […] A linear relationship between tumor cell number and formazan produced was found over the range of cell densities observed in these experiments.

The test system of data set [2] is murine splenocytes. As to the kind of experiment: two-way mixed lymphocyte reaction (MLR). Type of data set: cell-based. The following applies: Mus musculus, Splenocyte, percentage of positive MLR control (no compound); for activity at 0.01 µg/well: 0.01 ug/well; for activity at 0.1 µg/well: 0.1 ug/well; for activity at 1 µg/well: 1 ug/well; for activity at 10 µg/well: 10 ug/well. The procedure: The crude ethanolic extract was tested in the two-way mixed lymphocyte reaction (MLR) and a CV-1 cytotoxicity assay at a 1X concentration of the crude extract, using murine splenocytes. Cellular proliferation was measured using incorporation of ^3 H-thymidine.
The pure compounds were tested for immunosuppressive effects in the MLR assay and for specific cytotoxicity effects in the lymphocyte viability (LCV) assay both using murine splenocytes. […] Responses were reported as a percent of the positive MLR or LCV control. As a general rule, a low MLR value combined with a high LCV value indicates immunosuppressive activity.
^a Twoway murine mixed lymphocyte response. Results are expressed as
percentage of the positive MLR control response (no compound).

For data set [3], the system named is P388 leukemia cells. As to the kind of experiment: antiproliferative effect against P388 leukemia cells (MTT). Type of data set: cell-based. The following applies: Mus musculus; murine P388 leukemia cells, 48-h exposure; mean ± S.D., n in parentheses. The protocol: as §1, §2, §3
Data set [4] has as its system HT-29 colon tumor cells. As to the kind of experiment: antiproliferative effect against HT-29 colon tumor cells (MTT). The following applies: human colon tumor cells, mean ± S.D., n in parentheses. Type of data set: cell-based. The protocol:
as §1, §2, §3

Data set [5] is described as follows: lymphocyte viability (LCV) assay. Type of data set: cell-based, murine. The following applies: mouse, splenocytes, percentage of positive LCV control (no compound). The procedure:
The pure compounds were tested for immunosuppressive effects in the MLR assay and for specific cytotoxicity effects in the lymphocyte viability (LCV) assay both using murine splenocytes. Cellular proliferation was determined using incorporation of ^3 H-thymidine and a modified form of the M. T. T. assay (Mosmann, T. [1983] "Rapid colorimetric assay for cellular growth and survival: Application to proliferation and cytotoxicity assays," J. Immunol. Methods, 65:55-63). Responses were reported as a percent of the positive MLR or LCV control. As a general rule, a low MLR value combined with a high LCV value indicates immunosuppressive activity.
^b Viability (LCV) of lymphocytes as measured by metabolism of M.T.T.
Results are expressed as a percentage of the positive LCV control respons

This is an account of results in patent US5073572A, “Bioactive metabolites from cribrochalina vasculum” (Harbor Branch Oceanographic Institution, Inc., priority 1990, dated 1991).

≈ marks a conversion by molar mass, not a printed value.

As usually defined, the IC50 is the point on the concentration scale where inhibition reaches its midpoint. Broadly, the viability is a read-out of living cells in per cent, often relative to untreated cells. Low values mean a greater loss of cells, high ones better survival.

Take `C#CC(O)C=CCCCCCCCCCCCCCC(C)C` (stereo not drawn) [SP10101]: the concentration for half-maximal inhibition (IC50) in data set [1] is 2.3 ± 0.7 µg/mL (≈ 7.5 µM); in data set [3], 1.44 ± 0.28 µg/mL (≈ 4.7 µM); in data set [4], 1.06 ± 0.11 µg/mL (≈ 3.46 µM). Further, the activity at 0.01 µg/well in data set [2] worked out at 21%. Further, in data set [2], the activity at 0.1 µg/well came out at 0%. Moreover, the activity at 1 µg/well in data set [2] worked out at 0%. In addition, the viability in data set [5] (0.01 ug/well) was 82%; in data set [5] (0.1 ug/well) it was 49%; in data set [5] (1 ug/well), 7%; in data set [5] (10 ug/well) it was 10%.
For `C#CC(O)C=CCCCCCCCCCC=CCCCCC(C)C` (stereo not drawn) [SP10102], the IC50 came to 2.9 ± 0.34 µg/mL (≈ 8.72 µM) in data set [1], 1.63 ± 0.29 µg/mL (≈ 4.9 µM) in data set [3] and 1.46 ± 0.06 µg/mL (≈ 4.39 µM) in data set [4]. In data set [2], this compound registered an activity at 0.01 µg/well of 20%. Besides, the activity at 0.1 µg/well in data set [2] amounted to 0%. In addition, in data set [2], the activity at 1 µg/well came to 0%. In data set [2], the activity at 10 µg/well was found to be 0%. Besides, the viability in data set [5] (0.01 ug/well) was 67%; in data set [5] (0.1 ug/well), 45%; in data set [5] (1 ug/well) it was 15%; in data set [5] (10 ug/well) it was 0%.
For the compound `C#CC(O)C=CCCCCCCCCCCC(C)CCCC` (stereo not drawn) [SP10100], the IC50 in data set [1] turned out to be 1.56 ± 0.06 µg/mL (≈ 5.09 µM); in data set [3] it was 1.58 ± 0.51 µg/mL (≈ 5.15 µM); in data set [4], 0.86 ± 0.06 µg/mL (≈ 2.81 µM). The activity at 0.01 µg/well in data set [2] came to 21%. In data set [2], this compound displayed an activity at 0.1 µg/well of 0%. The activity at 1 µg/well in data set [2] turned out to be 0%. The same compound showed an activity at 10 µg/well in data set [2] of 0%. Also, the viability in data set [5] (0.01 ug/well) amounted to 78%; in data set [5] (0.1 ug/well), 42%; in data set [5] (1 ug/well), 12%; in data set [5] (10 ug/well), 8%.
As for `C#CC(O)C=CCCCCCCCCCC=CCCCCCC` (stereo not drawn) [SP10099], the half-maximal inhibitory concentration (IC50) in data set [1] amounted to 1.75 ± 0.06 µg/mL (≈ 5.49 µM); in data set [3] it was 1.23 ± 0.53 µg/mL (≈ 3.86 µM); in data set [4] it was 1.66 ± 0.15 µg/mL (≈ 5.21 µM). In data set [2], this compound had an activity at 0.01 µg/well of 33%. Further, the activity at 0.1 µg/well in data set [2] amounted to 0%. Also, the activity at 1 µg/well in data set [2] was determined as 0%. The activity at 10 µg/well in data set [2] came out at 0%. The viability was determined as 67% in data set [5] (0.01 ug/well), 34% in data set [5] (0.1 ug/well), 13% in data set [5] (1 ug/well) and 22% in data set [5] (10 ug/well).
As to `C#CC(O)C=CCCCCCCCCCCCCCCC` (stereo not drawn) [SP10098], the figures for the IC50 in data set [1], in data set [3] and in data set [4] were 1.6 ± 0.1 µg/mL (≈ 5.47 µM), 1.21 ± 0.73 µg/mL (≈ 4.14 µM) and 1.66 ± 0.47 µg/mL (≈ 5.68 µM), respectively. In data set [2], the activity at 0.01 µg/well worked out at 24%. The compound also returned an activity at 0.1 µg/well in data set [2] of 0%. In data set [2], this compound showed an activity at 1 µg/well of 0%. Besides, the activity at 10 µg/well in data set [2] came out at 0%. For the same compound, the viability in data set [5] (0.01 ug/well) came out at 80%; in data set [5] (0.1 ug/well) it was 61%; in data set [5] (1 ug/well), 21%; in data set [5] (10 ug/well), 2%.
